From patent US10781467B2, “3-epimerase and polynucleotide encoding same” (priority 2016, dated 2020)

Tested on: 3-epimerase
Test: Metal dependence of 3-epimerase
Type: biochemical, Thermogemmatispora carboxidivorans
Conditions: 1 mM metal ion, fructose as substrate
Method: In the current experimental examples, the enzyme activity is measured using fructose and sorbose as substrates. […] The sodium phosphate buffer solution containing fructose or sorbose is prepared by dissolving fructose or sorbose in a sodium phosphate buffer solution pH 7-8 to give a concentration of 60-70% (w/v). The sodium phosphate buffer solution containing fructose or sorbose is continuously added to a bioreactor maintained at 60° C. For the purpose of facilitating the comparison of enzyme activities, one unit of allulose-3-epimerase is defined as an amount of allulose-3-epimerase required to produce […] of D-allulose per minute at pH 7.5 and 60° C.; and one unit of tagatose-3-epimerase is defined as an amount of tagatose-3-epimerase required to produce […] of D-tagatose per minute at pH 7.5 and 60° C. The concentrations of fructose, D-allulose, sorbose, and D-tagatose are determined by high performance liquid chromatography with a BP-100 calcium ion […] column and an RI detector. The column temperature is 80° C., and the mobile phase is ultrapure water with a flow rate of 0.5 mL/min. In Example 3, in order to investigate the effect of metal ions on the 3-epimerase, the effect on the activity of 3-epimerase was measured with fructose as a substrate in the presence of various metal ions. The measurement was carried out by treating 3-epimerase with EDTA, and then adding 1 mM of various metal ions shown in Table 1 below to the 3-epimerase solution. The reaction catalyzed by 3-epimerase was carried out in a 50 mM Tris buffer pH 7.5 at 60° C. for 20 minutes, where the Tris buffer contained 0.04 U/mL 3-epimerase and 10% (w/v) fructose. The reaction solution was further heated at 100° C. for 15 minutes to terminate the reaction, and then the activity of the 3-epimerase was measured.

effect of metal ion on enzyme activity | Compound
inhibit the enzyme activity | [Cu+2] [Cu^2+]
enhance the enzyme activity | [Mg+2] [Mg^2+]
enhance the enzyme activity | [Mn+2] [Mn^2+]
inhibit the enzyme activity | [Zn+2] [Zn^2+]

Compound | effect of metal ion on enzyme activity
[Co+2] [Co^2+] | enhance the enzyme activity

Same assay, conditions: EDTA-treated 3-epimerase 0.04 U/mL, 1 mM metal ion, 10% (w/v) fructose, Tris pH 7.5, 60° C., 20 minutes; None = 100

Relative activity (%) | Compound
65 | [Ca+2] [Ca^2+]
0 | [Cu+2] [Cu^2+]
113 | [K+] [K^+]
130 | [Mg+2] [Mg^2+]
168 | [Mn+2] [Mn^2+]
120 | [Na+] [Na^+]
0 | [Zn+2] [Zn^2+]

Compound | Relative activity (%)
[Co+2] [Co^2+] | 170

Tested on: not given
Test: not given
Conditions: in humans; cited from earlier work

Compound | absorption rate [%]
O=C(CO)[C@@H](O)[C@@H](O)[C@H](O)CO [D-tagatose] | 20 to 25

Tested on: 3-epimerase
Test: Specificity of 3-epimerase for substrate
Type: biochemical, Thermogemmatispora carboxidivorans
Conditions: 10 mM monosaccharide
Method: In the current experimental examples, the enzyme activity is measured using fructose and sorbose as substrates. In order to measure the enzyme activity, 3-epimerase is mixed with 50 mM sodium phosphate buffer solution (pH 7.5) containing 10% fructose or sorbose, reacted at 60° C. for 20 minutes, and then heated at 100° C. for 15 minutes to terminate the reaction. The sodium phosphate buffer solution containing fructose or sorbose is prepared by dissolving fructose or sorbose in a sodium phosphate buffer solution pH 7-8 to give a concentration of 60-70% (w/v). The sodium phosphate buffer solution containing fructose or sorbose is continuously added to a bioreactor maintained at 60° C. For the purpose of facilitating the comparison of enzyme activities, one unit of allulose-3-epimerase is defined as an amount of allulose-3-epimerase required to produce […] of D-allulose per minute at pH 7.5 and 60° C.; and one unit of tagatose-3-epimerase is defined as an amount of tagatose-3-epimerase required to produce […] of D-tagatose per minute at pH 7.5 and 60° C. The concentrations of fructose, D-allulose, sorbose, and D-tagatose are determined by high performance liquid chromatography with a BP-100 calcium ion […] column and an RI detector. The column temperature is 80° C., and the mobile phase is ultrapure water with a flow rate of 0.5 mL/min.
The reaction catalyzed by 3-epimerase was carried out in a 50 mM sodium phosphate buffer solution pH 7.5 at 60° C. for 20 minutes, where the sodium phosphate buffer solution contained 0.04 U/ml 3-epimerase and 10 mM of various individual monosaccharides shown in Table 2 below. Each reaction solution was heated at 100° C. for 15 minutes to terminate the reaction, and then the enzyme activity of the 3-epimerase in each reaction solution was measured.

Compound | 3-epimerase activity for substrate
O=C(CO)[C@H](O)[C@H](O)[C@H](O)CO [D-allulose, D-ribo-2-hexulose] | active
O=C(CO)[C@@H](O)[C@@H](O)[C@H](O)CO [D-tagatose] | active
O=C(CO)[C@@H](O)[C@H](O)[C@H](O)CO [Fructose, D-fructose] | active
O=C(CO)[C@H](O)[C@@H](O)[C@H](O)CO [Sorbose, D-sorbose] | active

Same assay, conditions: 0.04 U/ml 3-epimerase, 10 mM monosaccharide as substrate, pH 7.5, 60° C., 20 minutes

Compound | Relative activity (%)
O=C(CO)[C@H](O)[C@H](O)[C@H](O)CO [D-allulose, D-ribo-2-hexulose] | 100
O=C(CO)[C@@H](O)[C@@H](O)[C@H](O)CO [D-tagatose] | 40.7
O=C(CO)[C@@H](O)[C@H](O)[C@H](O)CO [Fructose, D-fructose] | 63.9
O=C(CO)[C@H](O)[C@@H](O)[C@H](O)CO [Sorbose, D-sorbose] | 21
